According to PMC7104248, “Discovery of Taniborbactam (VNRX-5133): A Broad-Spectrum Serine- and Metallo-β-lactamase Inhibitor for Carbapenem-Resistant Bacterial Infections” (Journal of Medicinal Chemistry, 2019):
Converted amounts (≈) assume the structure as drawn. Read-outs that look alike come from different tables or passages of the source. Blank lines part the entries; values can stand above or below the compound they belong to.

Tests used:
[1] = tested on: E. coli CDC-0452 (NDM); assay: MIC, rescue of β-lactams in MDR clinical isolates; format: cell-based; conditions: Escherichia coli
[2] = tested on: E. coli (CTX-M-15); assay: MIC against the urinary tract model strain; format: cell-based; conditions: Escherichia coli
[3] = tested on: E. coli CDC-0055 (NDM-1, CMY-6, OXA-1); assay: MIC, rescue of β-lactams in MDR clinical isolates; format: cell-based; conditions: Escherichia coli
[4] = tested on: E. coli UNT-057-1 expressing CTX-M-15; assay: mouse ascending urinary tract infection model; format: in vivo; conditions: mice, at day 7; BID s.c.; cefepime alone, cefepime/VNRX-5133 16:8, Caz/Avi 16:4 mg/kg/dose
[5] = tested on: P. aeruginosa CDC-0457 (VIM); assay: MIC, rescue of β-lactams in MDR clinical isolates; format: cell-based; conditions: Pseudomonas aeruginosa
[6] = tested on: K. pneumoniae CDC-0066 (OXA-232, OXA-9, TEM-1A, CTX-M-15, OXA-1); assay: MIC, rescue of β-lactams in MDR clinical isolates; format: cell-based; conditions: Klebsiella pneumoniae
[7] = tested on: P. aeruginosa CDC-0356 (KPC-2, PDC-42); assay: MIC, rescue of β-lactams in MDR clinical isolates; format: cell-based; conditions: Pseudomonas aeruginosa
[8] = tested on: K. pneumoniae CDC-0040 (VIM-27, CTX-M-15, SHV-11, OXA-1); assay: MIC, rescue of β-lactams in MDR clinical isolates; format: cell-based; conditions: Klebsiella pneumoniae
[9] = tested on: K. pneumoniae ATCC BAA 1705 (KPC-2); assay: MIC, rescue of β-lactams in MDR clinical isolates; format: cell-based; conditions: Klebsiella pneumoniae
[10] = tested on: K. pneumoniae (CTX-M-14); assay: MIC against the lung model strain; format: cell-based; conditions: Klebsiella pneumoniae
[11] = tested on: K. pneumoniae CDC-0361 (KPC-2, SHV-12, TEM-1); assay: MIC, rescue of β-lactams in MDR clinical isolates; format: cell-based; conditions: Klebsiella pneumoniae
[12] = tested on: K. pneumoniae UNT-065-1 expressing CTX-M-14; assay: neutropenic mouse lung infection model; format: in vivo; conditions: neutropenic mice
[13] = tested on: K. pneumoniae expressing KPC-2 and VIM-4; assay: broth microdilution MIC, meropenem potentiation; format: cell-based; conditions: Klebsiella pneumoniae, read-out: MIC of meropenem alone
[14] = tested on: K. pneumoniae expressing KPC-2; assay: broth microdilution MIC, meropenem potentiation; format: cell-based; conditions: Klebsiella pneumoniae, read-out: MIC of meropenem alone
[15] = tested on: P. aeruginosa expressing VIM-2; assay: broth microdilution MIC, meropenem potentiation; format: cell-based; conditions: Pseudomonas aeruginosa, read-out: MIC of meropenem alone
[16] = tested on: K. pneumoniae expressing OXA-48; assay: broth microdilution MIC, meropenem potentiation; format: cell-based; conditions: Klebsiella pneumoniae, read-out: MIC of meropenem alone
[17] = target: T1, IMP-1 (Serratia marcescens, UniProt P52699); assay: β-lactamase inhibition assay, nitrocefin substrate; format: biochemical
T1 sequence (P52699 19-246 limits assumed): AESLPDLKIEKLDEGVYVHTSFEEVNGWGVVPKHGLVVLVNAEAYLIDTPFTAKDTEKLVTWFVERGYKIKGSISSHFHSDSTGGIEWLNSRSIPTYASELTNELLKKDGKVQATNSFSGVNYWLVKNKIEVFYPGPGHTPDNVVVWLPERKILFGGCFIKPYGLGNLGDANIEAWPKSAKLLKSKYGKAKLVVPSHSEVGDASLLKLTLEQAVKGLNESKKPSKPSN

[18] = target: NDM-1 (Klebsiella pneumoniae, UniProt C7C422); assay: biochemical
Chain of NDM-1 (C7C422 29-270 limits assumed): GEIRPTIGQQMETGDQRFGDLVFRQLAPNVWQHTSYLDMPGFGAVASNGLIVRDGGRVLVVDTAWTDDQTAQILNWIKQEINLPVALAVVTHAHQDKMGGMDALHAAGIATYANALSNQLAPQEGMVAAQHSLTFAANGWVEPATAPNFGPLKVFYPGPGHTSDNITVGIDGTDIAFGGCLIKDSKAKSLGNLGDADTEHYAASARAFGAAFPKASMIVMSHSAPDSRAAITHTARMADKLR

[19] = preclinical toxicity evaluation
Source text: NCT03840148 at ClinicalTrials.gov).

[20] = tested on: E. aerogenes 188548 (AmpC); assay: intrinsic antibacterial activity, MIC; format: cell-based; conditions: Klebsiella aerogenes
[21] = tested on: K. pneumoniae CI 09 (W/T); assay: intrinsic antibacterial activity, MIC; format: cell-based; conditions: Klebsiella pneumoniae
[22] = tested on: trypsin; assay: selectivity panel at 100 μM; format: biochemical, human
Source text: (§1) The panel included serine proteases (i.e., cathepsin G, chymotrypsin, Factor Xa, trypsin, and neutrophil elastase 2), metalloproteinases (MMP-1, -2, -3, and -9), cytochrome P450s (1A2, 2C9, 2C19, 2D6, and 3A4), and the hERG potassium channel.

[23] = tested on: chymotrypsin; assay: selectivity panel at 100 μM; format: biochemical, human
Source text: as §1

[24] = target: OXA-48 (Klebsiella pneumoniae, UniProt Q6XEC0); conditions: read-out: IC50 OXA-48, literature value in parentheses; cited from earlier work
Chain of OXA-48 (Q6XEC0 23-265, looked up): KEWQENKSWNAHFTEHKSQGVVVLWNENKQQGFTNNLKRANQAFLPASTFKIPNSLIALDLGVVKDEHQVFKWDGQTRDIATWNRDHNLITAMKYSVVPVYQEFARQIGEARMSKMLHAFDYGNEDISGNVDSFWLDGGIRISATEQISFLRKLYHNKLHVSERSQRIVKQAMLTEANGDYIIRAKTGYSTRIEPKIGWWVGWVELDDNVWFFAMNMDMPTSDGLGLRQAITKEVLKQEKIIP

[25] = tested on: CphA; conditions: read-out: IC50 subclass B2 MBL CphA; cited from earlier work
[26] = target: MMP-1 (Homo sapiens, UniProt P03956); assay: selectivity panel at 100 μM; format: biochemical
Source text: as §1

[27] = target: MMP-9 (Homo sapiens, UniProt P14780); assay: selectivity panel at 100 μM; format: biochemical
Chain of MMP-9 (P14780 94-707): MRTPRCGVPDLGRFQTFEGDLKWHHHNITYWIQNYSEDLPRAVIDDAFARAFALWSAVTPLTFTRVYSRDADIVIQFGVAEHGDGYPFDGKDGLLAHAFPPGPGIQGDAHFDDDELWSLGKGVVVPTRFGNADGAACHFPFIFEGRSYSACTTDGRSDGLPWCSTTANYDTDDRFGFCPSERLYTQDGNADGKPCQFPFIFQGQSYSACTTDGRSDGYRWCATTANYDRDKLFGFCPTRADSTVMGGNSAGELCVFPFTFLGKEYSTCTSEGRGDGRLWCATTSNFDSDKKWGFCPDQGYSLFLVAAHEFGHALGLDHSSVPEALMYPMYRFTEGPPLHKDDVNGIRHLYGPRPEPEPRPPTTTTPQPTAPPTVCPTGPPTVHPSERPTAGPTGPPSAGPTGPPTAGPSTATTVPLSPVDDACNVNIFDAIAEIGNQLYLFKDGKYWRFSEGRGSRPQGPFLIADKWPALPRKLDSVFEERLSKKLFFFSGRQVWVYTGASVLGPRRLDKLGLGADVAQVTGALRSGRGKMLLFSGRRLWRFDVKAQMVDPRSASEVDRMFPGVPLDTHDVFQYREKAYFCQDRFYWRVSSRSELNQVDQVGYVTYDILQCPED
Source text: as §1

[28] = target: MMP-3 (Homo sapiens, UniProt P08254); assay: selectivity panel at 100 μM; format: biochemical
Source text: as §1

[29] = target: T2, Factor Xa (Homo sapiens, UniProt P00742); assay: selectivity panel at 100 μM; format: biochemical
T2 construct: serine proteases (i.e., cathepsin G, chymotrypsin, Factor Xa, trypsin, and neutrophil elastase 2)
Source text: as §1

[30] = target: cathepsin G (Homo sapiens, UniProt P08311); assay: selectivity panel at 100 μM; format: biochemical
Chain of cathepsin G (P08311 21-255): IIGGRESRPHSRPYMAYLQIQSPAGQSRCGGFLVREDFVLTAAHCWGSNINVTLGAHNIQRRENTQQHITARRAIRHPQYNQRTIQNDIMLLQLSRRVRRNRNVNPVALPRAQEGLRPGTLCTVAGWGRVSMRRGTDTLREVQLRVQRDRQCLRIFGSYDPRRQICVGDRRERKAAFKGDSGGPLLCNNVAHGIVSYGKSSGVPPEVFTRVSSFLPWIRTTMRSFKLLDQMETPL
Source text: as §1

[31] = target: MMP-2 (Homo sapiens, UniProt P08253); assay: selectivity panel at 100 μM; format: biochemical
Chain of MMP-2 (P08253 110-660): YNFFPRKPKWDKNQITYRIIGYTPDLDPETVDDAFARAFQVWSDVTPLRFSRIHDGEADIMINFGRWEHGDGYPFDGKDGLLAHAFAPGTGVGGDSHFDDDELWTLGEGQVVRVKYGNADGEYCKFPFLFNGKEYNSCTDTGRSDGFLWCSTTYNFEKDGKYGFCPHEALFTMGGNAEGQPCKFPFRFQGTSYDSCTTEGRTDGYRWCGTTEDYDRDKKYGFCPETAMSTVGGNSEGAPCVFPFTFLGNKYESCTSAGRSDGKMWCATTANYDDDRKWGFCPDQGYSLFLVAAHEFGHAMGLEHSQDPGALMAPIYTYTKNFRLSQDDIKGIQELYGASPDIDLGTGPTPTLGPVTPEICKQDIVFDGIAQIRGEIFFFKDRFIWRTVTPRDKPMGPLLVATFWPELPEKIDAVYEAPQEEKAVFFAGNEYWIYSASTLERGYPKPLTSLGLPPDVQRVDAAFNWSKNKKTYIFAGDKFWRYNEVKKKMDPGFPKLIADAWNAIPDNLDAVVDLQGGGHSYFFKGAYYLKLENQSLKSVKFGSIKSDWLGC
Source text: as §1

[32] = target: neutrophil elastase 2 (Homo sapiens, UniProt P08246); assay: selectivity panel at 100 μM; format: biochemical
Chain of neutrophil elastase 2 (P08246 30-267): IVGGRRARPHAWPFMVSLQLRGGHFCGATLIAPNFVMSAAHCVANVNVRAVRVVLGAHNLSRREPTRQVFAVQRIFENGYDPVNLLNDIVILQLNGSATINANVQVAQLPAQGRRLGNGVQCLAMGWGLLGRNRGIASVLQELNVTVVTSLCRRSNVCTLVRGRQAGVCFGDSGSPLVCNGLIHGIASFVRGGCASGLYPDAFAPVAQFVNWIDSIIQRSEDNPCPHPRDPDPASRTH
Source text: as §1

[33] = tested on: S. aureus 33591 (MRSA); assay: intrinsic antibacterial activity, MIC; format: cell-based; conditions: Staphylococcus aureus
[34] = tested on: P. aeruginosa 27853 (W/T); assay: intrinsic antibacterial activity, MIC; format: cell-based; conditions: Pseudomonas aeruginosa
[35] = target: cytochrome P450 2D6 (Homo sapiens, UniProt P10635); assay: selectivity panel at 100 μM; format: in vitro ADME
Chain of cytochrome P450 2D6 (P10635 whole entry): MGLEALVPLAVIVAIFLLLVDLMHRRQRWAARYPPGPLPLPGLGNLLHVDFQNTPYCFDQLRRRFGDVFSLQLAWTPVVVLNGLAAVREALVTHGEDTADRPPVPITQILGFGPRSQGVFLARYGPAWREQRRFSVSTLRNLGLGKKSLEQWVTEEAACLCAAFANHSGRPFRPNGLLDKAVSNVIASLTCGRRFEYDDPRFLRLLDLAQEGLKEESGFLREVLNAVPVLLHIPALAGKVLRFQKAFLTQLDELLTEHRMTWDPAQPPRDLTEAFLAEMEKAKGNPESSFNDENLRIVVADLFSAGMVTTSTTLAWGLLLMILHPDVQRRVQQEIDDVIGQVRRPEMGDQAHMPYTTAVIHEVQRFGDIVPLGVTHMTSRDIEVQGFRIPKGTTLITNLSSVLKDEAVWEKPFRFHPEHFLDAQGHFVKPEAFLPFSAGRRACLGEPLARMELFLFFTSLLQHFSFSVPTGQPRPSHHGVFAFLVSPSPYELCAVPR
Source text: as §1

[36] = target: cytochrome P450 2C9 (Homo sapiens, UniProt P11712); assay: selectivity panel at 100 μM; format: in vitro ADME
Chain of cytochrome P450 2C9 (P11712 whole entry): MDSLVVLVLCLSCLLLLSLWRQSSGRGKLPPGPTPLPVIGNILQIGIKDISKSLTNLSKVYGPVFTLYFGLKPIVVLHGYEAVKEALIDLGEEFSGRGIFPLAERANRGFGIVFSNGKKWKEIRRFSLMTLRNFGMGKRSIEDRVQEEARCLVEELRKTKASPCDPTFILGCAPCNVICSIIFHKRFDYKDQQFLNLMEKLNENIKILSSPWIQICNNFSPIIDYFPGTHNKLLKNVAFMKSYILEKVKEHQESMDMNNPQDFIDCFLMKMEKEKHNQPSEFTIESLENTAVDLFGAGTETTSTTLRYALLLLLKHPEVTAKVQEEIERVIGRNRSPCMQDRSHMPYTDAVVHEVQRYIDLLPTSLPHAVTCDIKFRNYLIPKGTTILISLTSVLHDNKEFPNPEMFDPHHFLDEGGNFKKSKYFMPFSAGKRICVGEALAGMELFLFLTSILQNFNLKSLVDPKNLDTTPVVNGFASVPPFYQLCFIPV
Source text: as §1

[37] = target: cytochrome P450 3A4 (Homo sapiens, UniProt P08684); assay: selectivity panel at 100 μM; format: in vitro ADME
Chain of cytochrome P450 3A4 (P08684 whole entry): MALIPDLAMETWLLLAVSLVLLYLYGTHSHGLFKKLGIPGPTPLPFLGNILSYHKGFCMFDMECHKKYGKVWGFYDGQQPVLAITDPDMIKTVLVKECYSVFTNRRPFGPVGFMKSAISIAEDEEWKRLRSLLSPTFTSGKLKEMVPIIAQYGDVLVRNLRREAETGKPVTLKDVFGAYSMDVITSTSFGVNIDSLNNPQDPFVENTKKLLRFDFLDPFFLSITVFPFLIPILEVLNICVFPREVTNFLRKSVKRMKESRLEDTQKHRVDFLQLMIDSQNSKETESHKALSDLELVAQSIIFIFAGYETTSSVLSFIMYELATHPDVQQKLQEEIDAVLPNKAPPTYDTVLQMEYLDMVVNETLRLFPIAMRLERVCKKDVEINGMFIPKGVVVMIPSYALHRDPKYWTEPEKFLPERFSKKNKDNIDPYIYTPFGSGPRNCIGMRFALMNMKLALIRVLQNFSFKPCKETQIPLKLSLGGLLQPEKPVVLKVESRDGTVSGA
Source text: as §1

[38] = target: cytochrome P450 2C19 (Homo sapiens, UniProt P33261); assay: selectivity panel at 100 μM; format: in vitro ADME
Chain of cytochrome P450 2C19 (P33261 whole entry): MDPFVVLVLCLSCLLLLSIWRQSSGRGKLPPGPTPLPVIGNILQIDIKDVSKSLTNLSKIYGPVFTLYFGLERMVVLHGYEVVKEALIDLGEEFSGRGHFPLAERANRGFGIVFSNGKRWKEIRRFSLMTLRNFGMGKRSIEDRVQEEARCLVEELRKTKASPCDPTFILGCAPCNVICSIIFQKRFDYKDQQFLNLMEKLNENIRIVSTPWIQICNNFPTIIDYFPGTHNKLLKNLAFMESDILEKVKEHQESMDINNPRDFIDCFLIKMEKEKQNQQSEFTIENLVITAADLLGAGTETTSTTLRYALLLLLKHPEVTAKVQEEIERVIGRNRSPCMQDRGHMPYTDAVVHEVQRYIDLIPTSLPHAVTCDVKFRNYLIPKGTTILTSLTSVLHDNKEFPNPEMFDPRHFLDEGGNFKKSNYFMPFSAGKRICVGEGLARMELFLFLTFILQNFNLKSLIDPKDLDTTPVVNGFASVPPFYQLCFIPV
Source text: as §1

[39] = target: cytochrome P450 1A2 (Homo sapiens, UniProt P05177); assay: selectivity panel at 100 μM; format: in vitro ADME
Chain of cytochrome P450 1A2 (P05177 whole entry): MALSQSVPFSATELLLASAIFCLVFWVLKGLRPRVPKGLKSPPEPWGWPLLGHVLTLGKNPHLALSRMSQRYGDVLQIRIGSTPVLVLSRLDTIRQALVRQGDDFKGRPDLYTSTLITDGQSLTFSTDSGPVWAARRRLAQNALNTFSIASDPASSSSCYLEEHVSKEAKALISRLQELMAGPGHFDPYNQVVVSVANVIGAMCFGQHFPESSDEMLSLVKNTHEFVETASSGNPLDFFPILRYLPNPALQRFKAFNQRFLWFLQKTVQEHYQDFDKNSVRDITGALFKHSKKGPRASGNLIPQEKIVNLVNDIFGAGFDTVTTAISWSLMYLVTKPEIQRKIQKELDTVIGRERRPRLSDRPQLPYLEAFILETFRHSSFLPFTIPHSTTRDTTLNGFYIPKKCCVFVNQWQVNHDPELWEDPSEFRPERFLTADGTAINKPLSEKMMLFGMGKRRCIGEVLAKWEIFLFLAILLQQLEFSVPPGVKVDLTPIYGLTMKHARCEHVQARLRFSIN
Source text: as §1

[40] = tested on: K. pneumoniae 11978 (OXA-48); assay: intrinsic antibacterial activity, MIC; format: cell-based; conditions: Klebsiella pneumoniae
[41] = tested on: K. pneumoniae A-1797 (KPC-2, VIM-4, CMY-4); assay: microbe, parasite or virus in culture; format: cell-based; conditions: Klebsiella pneumoniae
[42] = tested on: E. coli 25922 (W/T); assay: intrinsic antibacterial activity, MIC; format: cell-based; conditions: Escherichia coli
[43] = tested on: E. coli J53 (SHV5, AmpC, TEM-1); assay: intrinsic antibacterial activity, MIC; format: cell-based; conditions: Escherichia coli
[44] = tested on: S. aureus 29213 (W/T); assay: intrinsic antibacterial activity, MIC; format: cell-based; conditions: Staphylococcus aureus
[45] = tested on: K. pneumoniae UMM (SHV5, KPC-2, TEM-1); assay: intrinsic antibacterial activity, MIC; format: cell-based; conditions: Klebsiella pneumoniae
[46] = tested on: human primary renal proximal tubule cells; assay: toxicity in renal proximal tubule cells; format: cell-based; conditions: tested up to 1000 μg/mL
[47] = tested on: panel of 50 human enzymes and receptors; assay: selectivity panel at 100 μM
Source text: as §1

[48] = target: hERG potassium channel (Homo sapiens, UniProt Q12809); assay: selectivity panel at 100 μM
Source text: as §1

[49] = tested on: L1; set-up: method as in PMID 31454231; conditions: cited from earlier work
[50] = target: T1, IMP-1; conditions: read-out: IC50 IMP-1, literature value in parentheses; cited from earlier work
[51] = tested on: E. cloacae 144200 (p99 AmpC); assay: intrinsic antibacterial activity, MIC; format: cell-based; conditions: Enterobacter cloacae
[52] = tested on: 14 Gram-negative pathogens expressing class B enzymes (VIM-1, VIM-2, VIM-4, NDM-1); format: cell-based; conditions: 14 MBL-producing strains
[53] = tested on: P. aeruginosa Ps296 (AmpC, VIM-2, TEM-1); assay: intrinsic antibacterial activity, MIC; format: cell-based; conditions: Pseudomonas aeruginosa
[54] = target: VIM-2 (Escherichia coli, UniProt Q5U7L7); assay: β-lactamase inhibition assay, nitrocefin substrate; format: biochemical; conditions: in our hands

SMILES: CO/N=C(\C(=O)N[C@@H]1C(=O)N2C(C(=O)[O-])=C(C[N+]3(C)CCCC3)CS[C@H]12)c1csc(N)n1 [cefepime]
MIC ([1]; read-out: FEP MIC): 64 µg/mL (≈ 133 µM)
MIC [2]: 128 µg/mL (≈ 266 µM)
MIC ([3]; read-out: FEP MIC): 128 µg/mL (≈ 266 µM)
log10 CFU/kidney [4]: 7.25 ± 0.16 log10 CFU/kidney
MIC ([5]; read-out: FEP MIC): 16 µg/mL (≈ 33.3 µM)
MIC ([6]; read-out: FEP MIC): > 128 µg/mL
MIC ([7]; read-out: FEP MIC): > 128 µg/mL
MIC ([8]; read-out: FEP MIC): > 128 µg/mL
MIC ([9]; BAA1705, read-out: FEP MIC): 16 µg/mL (≈ 33.3 µM)
MIC [10]: 64 µg/mL (≈ 133 µM)
MIC ([11]; read-out: FEP MIC): 32 µg/mL (≈ 66.6 µM)
log10 CFU/lung ([12]; at 24 h, cefepime alone 32, cefepime/VNRX-5133 32:16, Caz/Avi 32:8 mg/kg s.c. single dose): 9.27 ± 0.21 log10 CFU/lung
reduction in viable bacterial counts in lung tissue ([12]; single subcutaneous dose, cefepime 32 mg/kg alone or cefepime/20 32 and 16 mg/kg, 24 h): not effective

SMILES: C[C@@H](O)[C@H]1C(=O)N2C(C(=O)O)=C(S[C@@H]3CN[C@H](C(=O)N(C)C)C3)[C@H](C)[C@H]12 [meropenem]
MIC [13]: ≥ 32 µg/mL
MIC [14]: ≥ 32 µg/mL
MIC [15]: ≥ 32 µg/mL
MIC [16]: ≥ 32 µg/mL

SMILES: C[C@]1(Cn2ccnn2)[C@H](C(=O)O)N2C(=O)C[C@H]2S1(=O)=O [tazobactam]
IC50 [17]: > 100 µM
IC50 [18]: > 100 µM

SMILES: O=C(O)[C@H]1/C(=C/CO)O[C@@H]2CC(=O)N21 [clavulanic acid]
IC50 [17]: > 100 µM
IC50 [18]: > 100 µM

SMILES: O=C(O)C[C@@H]1CC[C@H](NC(=O)Cc2cccs2)B(O)O1 [vaborbactam]
IC50 [17]: > 100 µM
IC50 [18]: > 100 µM

SMILES: NCCN[C@H]1CC[C@H](CC(=O)N[C@H]2Cc3cccc(C(=O)O)c3OB2O)CC1 [compound 20, (3R)-3-(2-{trans-4-[(2-Aminoethyl)amino]cyclohexyl}acetamido)-2-hydroxy-3,4-dihydro-2H-1,2-benzoxaborinine-8-carboxylic Acid]
safety profile in the preclinical toxicity evaluation [19]: clean safety profile
MIC [20]: > 128 µg/mL
MIC [21]: > 128 µg/mL
activity against trypsin [22]: no significant activity
activity against chymotrypsin [23]: no significant activity
IC50 [24]: 0.54 µM
IC50 [25]: ~2.51 µM
activity against MMP-1 [26]: no significant activity
activity against MMP-9 [27]: no significant activity
activity against MMP-3 [28]: no significant activity
activity against Factor Xa [29]: no significant activity
activity against cathepsin G [30]: no significant activity
activity against MMP-2 [31]: no significant activity
activity against neutrophil elastase 2 [32]: no significant activity
MIC [33]: > 128 µg/mL
MIC [34]: > 128 µg/mL
activity against cytochrome P450 2D6 [35]: no significant activity
activity against cytochrome P450 2C9 [36]: no significant activity
activity against cytochrome P450 3A4 [37]: no significant activity
activity against cytochrome P450 2C19 [38]: no significant activity
activity against cytochrome P450 1A2 [39]: no significant activity
MIC [40]: > 128 µg/mL
MIC [41]: > 128 µg/mL
MIC [42]: > 128 µg/mL
MIC [43]: > 128 µg/mL
MIC [44]: > 128 µg/mL
MIC [45]: > 128 µg/mL
toxicity in human primary proximal tubule cells [46]: No toxicity
activity against panel of 50 human enzymes and receptors [47]: no significant activity
activity against hERG potassium channel [48]: no significant activity
inhibition of subclass B3 MBL L1 [49]: did not inhibit
IC50 [50]: 2.51 µM
MIC [51]: > 128 µg/mL
decrease in the MIC of cefepime on addition of BLI [52]: ≥ 512 fold
MIC [53]: > 128 µg/mL

inhibition of the MBL VIM-2, in words [54]: micromolar levels
SMILES: CC(=O)N[C@H]1Cc2cccc(C(=O)O)c2OB1O [compound 1]

inhibition of the MBL VIM-2, in words [54]: micromolar levels
SMILES: NCc1ccc(CC(=O)N[C@H]2Cc3cccc(C(=O)O)c3OB2O)cc1 [compound 3]

SMILES: NC(=O)[C@@H]1CC[C@@H]2CN1C(=O)N2OS(=O)(=O)O [avibactam]
IC50 [17]: > 100 µM
IC50 [18]: > 100 µM

SMILES: CCN1CCN(C(=O)N[C@@H](C(=O)N[C@@H]2C(=O)N3[C@@H]2SC(C)(C)[C@@H]3C(=O)O)c2ccccc2)C(=O)C1=O [piperacillin]
MIC ([1]; read-out: PIP MIC): > 128 µg/mL
MIC ([3]; read-out: PIP MIC): > 128 µg/mL
MIC ([5]; read-out: PIP MIC): 64 µg/mL (≈ 124 µM)
MIC ([6]; read-out: PIP MIC): > 128 µg/mL
MIC ([7]; read-out: PIP MIC): > 128 µg/mL
MIC ([8]; read-out: PIP MIC): > 128 µg/mL
MIC ([9]; BAA1705, read-out: PIP MIC): > 128 µg/mL
MIC ([11]; read-out: PIP MIC): > 128 µg/mL
